Values after ≈ are worked out from the molar mass of the structure shown. Values joined by “and” are separate entries in the source; they are usually repeats but may differ in a detail not shown here. Equal values may be shown once. Read-outs that look alike come from different tables or passages of the source.

We go through 21 compounds from patent publication US9918964B2, “Reducing platelet activation, aggregation and platelet-stimulated thrombosis or blood coagulation by reducing mitochondrial respiration” (priority 2010, dated 2018).

Assay [1] has as its system platelets in whole blood. Nature of the assay: Platelet function testing with the Hemostasis Mechanism Analyzer (HMA): clumping, sticking, clotting in whole blood. The assay is classed as cell-based, human. To be noted: for activity at 3300 µg/mL / activity at 6700 µg/mL / activity at 11700 µg/mL / activity at 23300 µg/mL / activity at 5000 µg/mL / activity at 700 µg/mL / activity at 670 µg/mL: Homo sapiens, Platelet; for activity at 700 µg/mL: Dosage (mg/ml) 0.7; for activity at 670 µg/mL: Dosage (mg/ml) 0.67.

The subject of assay [2] is mitochondria isolated from liver of tilapia (Sarotheridon mossambica). The assay is classed as biochemical.
The mark [3] stands for this setting: Dosage (mg/ml) 3.3, 0 dosage = 100, read-out: % clot time increase.
The mark [4] stands for this setting: Dosage (mg/ml) 3.3, 0 dosage = 100, read-out: % clump time increase.
Where [5] appears, read: Dosage (mg/ml) 3.3, 0 dosage = 100, read-out: % stick time increase.
The mark [6] stands for this setting: Dosage (mg/ml) 6.7, 0 dosage = 100, read-out: % clot time increase.
[7] abbreviates: Dosage (mg/ml) 6.7, 0 dosage = 100, read-out: % clump time increase.
[8] abbreviates: Dosage (mg/ml) 6.7, 0 dosage = 100, read-out: % stick time increase.
Where [9] appears, read: Dosage (mg/ml) 11.7, 0 dosage = 100, read-out: % clot time increase.
The mark [10] stands for this setting: Dosage (mg/ml) 11.7, 0 dosage = 100, read-out: % clump time increase.
The mark [11] stands for this setting: Dosage (mg/ml) 11.7, 0 dosage = 100, read-out: % stick time increase.
[12] abbreviates: Dosage (mg/ml) 23.3, 0 dosage = 100, read-out: % clot time increase.
[13] abbreviates: Dosage (mg/ml) 23.3, 0 dosage = 100, read-out: % clump time increase.
Where [14] appears, read: Dosage (mg/ml) 23.3, 0 dosage = 100, read-out: % stick time increase.
Setting [15] is: in vitro whole blood assay, clumping, sticking, clotting.
Where [16] appears, read: Dosage (mg/ml) 5, 0 dosage = 100, read-out: % clot time increase.
Setting [17] is: Dosage (mg/ml) 5, 0 dosage = 100, read-out: % clump time increase.
Where [18] appears, read: Dosage (mg/ml) 5, 0 dosage = 100, read-out: % stick time increase.
[19] abbreviates: 0 dosage = 100, read-out: % clot time increase.
Where [20] appears, read: 0 dosage = 100, read-out: % clump time increase.
The mark [21] stands for this setting: 0 dosage = 100, read-out: % stick time increase.
Where [22] appears, read: read-out: % clump time increase.
Where [23] appears, read: read-out: % stick time increase.

On to 1H-triazole [Compound 99], for which, in assay [1], the “% clot time increase” value is 108% and 103%; the “% clump time increase” value is 103% and 99%; the “% stick time increase” value is 99% and 104%.
Regarding `O=C(O)CCCCC1CCSS1` (single isomer, unassigned) [Compound 90, 5-[(3R or 3S)-dithiolan-3-yl]pentanoic acid], the “IC50 (mg/ml) mitochondria inhibition” value in assay [2] amounted to 37.1 mg/mL (≈ 180 mM). Besides, the activity at 3300 µg/mL came to 97% in assay [1] (setting [3]), 102% in assay [1] (setting [4]) and 104% in assay [1] (setting [5]). For the same compound, the results for the activity at 6700 µg/mL in assay [1] (setting [6]), in assay [1] (setting [7]) and in assay [1] (setting [8]) were 104%, 97% and 100%, respectively. In addition, the values for the activity at 11700 µg/mL in assay [1] (setting [9]), in assay [1] (setting [10]) and in assay [1] (setting [11]) were 100%, 110% and 110%, respectively. Moreover, the activity at 23300 µg/mL in assay [1] (setting [12]) amounted to 110%; in assay [1] (setting [13]) it was 129%; in assay [1] (setting [14]), 136%. For the same compound, the “activity in the platelet assays (active agent or inactive)” value (“activity in the platelet assays” below) in assay [1] (setting [15]) was “inactive”.
Regarding `c1ccc(-c2cnn[nH]2)cc1` [Compound 2, 5-phenyl-1H-triazole], in assay [1] (setting [15]), the “activity in the platelet assays” value was “met the criteria for active agents”.
In the case of `Cn1cncn1` [Compound 8, 1-Methyl-1,2,4-triazole], the activity at 3300 µg/mL in assay [1] (setting [3]) is 104%; in assay [1] (setting [4]) it was 105%; in assay [1] (setting [5]), 98%. The activity at 5000 µg/mL is 105% in assay [1] (setting [16]), 121% in assay [1] (setting [17]) and 118% in assay [1] (setting [18]). The activity at 6700 µg/mL in assay [1] (setting [6]) was found to be 105%; in assay [1] (setting [7]) it was 130%; in assay [1] (setting [8]) it was 121%.
For `FC(F)(F)c1ccc(-c2nnn[nH]2)cc1` [Compound 18, 5-[4-(trifluoromethyl)phenyl]-1H-tetrazole], the activity at 6700 µg/mL in assay [1] (setting [6]) worked out at 106%; in assay [1] (setting [7]), 127%; in assay [1] (setting [8]), 106%.
In the case of `OC(c1ccccc1)c1nnn[nH]1` (centres unmarked) [Compound 24, phenyl(1H-tetrazol-5-yl)methanol], the activity at 700 µg/mL in assay [1] (setting [19]) is 96%; in assay [1] (setting [20]) it was 109%; in assay [1] (setting [21]), 105%. Besides, the activity at 3300 µg/mL in assay [1] (setting [3]) is 105%; in assay [1] (setting [4]) it was 126%; in assay [1] (setting [5]), 124%. Besides, the activity at 5000 µg/mL in assay [1] (setting [16]) was 113%; in assay [1] (setting [17]), 156%; in assay [1] (setting [18]), 152%. Further, the activity at 6700 µg/mL in assay [1] (setting [6]) worked out at 116%; in assay [1] (setting [7]), 160%; in assay [1] (setting [8]) it was 143%.
On to `COc1ccc(-c2nnn[nH]2)cc1` [Compound 26, 5-(4-methoxyphenyl)-1H-tetrazole], for which the values for the activity at 6700 µg/mL in assay [1] (setting [6]), in assay [1] (setting [7]) and in assay [1] (setting [8]) were 102%, 122% and 118%, respectively.
As to `Cn1cnnc1S` [Compound 33, 4-methyl-1,2,4-triazole-3-thiol], the activity at 5000 µg/mL in assay [1] (setting [16]) is 100%; in assay [1] (setting [17]) it was 100%; in assay [1] (setting [18]), 119%. The activity at 6700 µg/mL was determined as 108% in assay [1] (setting [6]), 115% in assay [1] (setting [7]) and 123% in assay [1] (setting [8]).
With `Cc1ncsc1CCCl` [Compound 45, 5-(2-chloroethyl)-4-methyl-thiazole], the activity at 6700 µg/mL is 101% in assay [1] (read-out: % clot time increase), 119% in assay [1] (setting [22]) and 108% in assay [1] (setting [23]).
`C[N+](C)(C)[C@@H](Cc1c[nH]c(=S)[nH]1)C(=O)[O-]` [Compound 50, (2S)-3-(2-thioxo-1,3-dihydroimidazol-4-yl)-2-(trimethylammonio) propanoate]: the “IC50 (mg/ml) mitochondria inhibition” value in assay [2] is 86 mg/mL (≈ 375 mM). Besides, in assay [1] (setting [15]), the “activity in the platelet assays” value is “inactive”.
For `C[N+](C)(C)[C@H](Cc1c[nH]c(=S)[nH]1)C(=O)[O-]` [Compound 51, (2R)-3-(2-thioxo-1,3-dihydroimidazol-4-yl)-2-(trimethylammonio) propanoate], the “IC50 (mg/ml) mitochondria inhibition” value in assay [2] was 93.8 mg/mL (≈ 409 mM). Further, the “activity in the platelet assays” value in assay [1] (setting [15]) was “inactive”.
On to `C1CCc2nnnn2CC1` [Compound 52, 6,7,8,9-tetrahydro-5H-tetrazolo[1,5-a]azepine], for which, in assay [1] (read-out: % clot time increase), the activity at 3300 µg/mL was 105%, the activity at 5000 µg/mL worked out at 112% and the activity at 6700 µg/mL came out at 117%. For the same compound, in assay [1] (setting [22]), the activity at 3300 µg/mL is 115%, the activity at 5000 µg/mL was found to be 143% and the activity at 6700 µg/mL was determined as 130%. In assay [1] (setting [23]), the activity at 3300 µg/mL was found to be 120%, the activity at 5000 µg/mL was 138% and the activity at 6700 µg/mL amounted to 131%.
For the compound `Cn1nnnc1S` [Compound 53, 1-methyltetrazole-5-thiol], in assay [2], the “IC50 (mg/ml) mitochondria inhibition” value was determined as 27.5 mg/mL (≈ 237 mM). The activity at 3300 µg/mL in assay [1] (setting [3]) is 117%; in assay [1] (setting [4]), 124%; in assay [1] (setting [5]), 117%. Moreover, the activity at 5000 µg/mL turned out to be 132% in assay [1] (setting [16]), 185% in assay [1] (setting [17]) and 176% in assay [1] (setting [18]). Moreover, the activity at 6700 µg/mL came out at 160% in assay [1] (setting [6]), 292% in assay [1] (setting [7]) and 265% in assay [1] (setting [8]).
With `Cc1ncsc1CCO` [Compound 60, 2-(4-methylthiazol-5-yl)ethanol], the activity at 700 µg/mL in assay [1] (setting [19]) came out at 100%; in assay [1] (setting [20]), 108%; in assay [1] (setting [21]), 103%. The activity at 3300 µg/mL was 104% in assay [1] (setting [3]), 136% in assay [1] (setting [4]) and 135% in assay [1] (setting [5]). The figures for the activity at 5000 µg/mL in assay [1] (setting [16]), in assay [1] (setting [17]) and in assay [1] (setting [18]) were 110%, 158% and 155%, respectively. Moreover, the activity at 6700 µg/mL turned out to be 115% in assay [1] (setting [6]), 192% in assay [1] (setting [7]) and 182% in assay [1] (setting [8]).
As for `COCCc1nn[nH]n1` [Compound 68, 5-(2-methoxyethyl)-2H-tetrazole], the activity at 670 µg/mL was 108% in assay [1] (setting [19]), 100% in assay [1] (setting [20]) and 110% in assay [1] (setting [21]). Further, the values for the activity at 3300 µg/mL in assay [1] (setting [3]), in assay [1] (setting [4]) and in assay [1] (setting [5]) were 107%, 100% and 114%, respectively. The activity at 6700 µg/mL in assay [1] (setting [6]) was 129%; in assay [1] (setting [7]) it was 186%; in assay [1] (setting [8]), 175%.
For `Cn1cc[nH]c1=S` [Compound 78, 3-methyl-1H-imidazole-2-thione, reference compound], the activity at 6700 µg/mL in assay [1] (read-out: % clot time increase) amounted to 110%; in assay [1] (setting [22]), 124%; in assay [1] (setting [23]), 101%. Also, the activity at 11700 µg/mL in assay [1] (read-out: % clot time increase) worked out at 123%; in assay [1] (setting [22]) it was 132%; in assay [1] (setting [23]), 118%. Also, the figures for the activity at 23300 µg/mL in assay [1] (read-out: % clot time increase), in assay [1] (setting [22]) and in assay [1] (setting [23]) were 156%, 216% and 203%, respectively. In assay [1] (setting [15]), the “activity in the platelet assays” value was “met the criteria for active agents”.
Turning to `COc1cc(/C=C/C(=O)/C=C(O)/C=C/c2ccc(O)c(OC)c2)ccc1O` [Compound 85, (1E,4Z,6E)-5-hydroxy-1,7-bis(4-hydroxy-3-methoxy-phenyl)hepta-1,4,6-trien-3-one], the “activity in the platelet assays” value in assay [1] (setting [15]) is listed as “none of them were active agents”.
The same measure, in the same setting: then `C=CCSCC=C` [Compound 86, 3-allylsulfanylprop-1-ene], with “none of them were active agents”.
Consider `CCCCC[C@H](O)CC(=O)CCc1ccc(O)c(OC)c1` [Compound 88, (5S)-5-hydroxy-1-(4-hydroxy-3-methoxy-phenyl)decan-3-one], for which the values for the activity at 3300 µg/mL in assay [1] (setting [3]), in assay [1] (setting [4]) and in assay [1] (setting [5]) were 104%, 107% and 100%, respectively. Besides, the activity at 6700 µg/mL is 102% in assay [1] (setting [6]), 106% in assay [1] (setting [7]) and 101% in assay [1] (setting [8]). The activity at 11700 µg/mL in assay [1] (setting [9]) amounted to 104%; in assay [1] (setting [10]) it was 111%; in assay [1] (setting [11]), 110%. The results for the activity at 23300 µg/mL in assay [1] (setting [12]), in assay [1] (setting [13]) and in assay [1] (setting [14]) were 100%, 128% and 132%, respectively. Moreover, in assay [1] (setting [15]), the “activity in the platelet assays” value is “none of them were active agents”.
`Oc1ccc(/C=C/c2cc(O)cc(O)c2)cc1` [Compound 89, 5-[(E)-2-(4-hydroxyphenyl)vinyl] benzene-1,3-diol]: the “activity in the platelet assays” value in assay [1] is recorded as “none of them were active agents”.
As to `N=C(N)NC(N)=S` [Compound 102, carbamimidoylthiourea], the “activity in the platelet assays” value in assay [1] (setting [15]) is listed as “none of them were active agents”.
